Structures are written as SMILES. ≈ marks a conversion by molar mass, not a printed value.

In the experiment the test system is L1210. The experiment in a line: Cytotoxicity against mouse L1210 cells. In kind it is functional, cell-based.
Usually IC50 stands for the point on the concentration scale where inhibition reaches its midpoint. Read a high IC50 as weaker potency. Consider `CC(C)C[C@@]1(O)C[C@@H](C)[C@H]2[C@@H]1C(=O)[C@H]1[C@@H]3[C@@H](O)[C@H](O)[C@H]4C[C@H](O)[C@@H](O)C[C@]4(C)[C@H]3CC[C@]21C`, for which the IC50 was found to be 4.1 µg/mL (≈ 8.82 µM).

Compound `CC(C)C[C@@]1(O)C[C@@H](C)[C@H]2[C@@H]1C(=O)[C@H]1[C@@H]3[C@@H](O)[C@H](O)[C@H]4C[C@H](O)CC[C@]4(C)[C@H]3CC[C@]21C` gave an IC50 of 4 µg/mL (≈ 8.92 µM).

On to `CC(C)C[C@@]1(O)C[C@@H](C)[C@H]2[C@@H]1C(=O)[C@H]1[C@@H]3[C@@H](O)[C@H](O)[C@H]4C[C@H](O)[C@@H](O)[C@@H](O)[C@]4(C)[C@H]3CC[C@]21C`, for which the IC50 is more than 10 µg/mL.

(Values after ChEMBL document CHEMBL1159226, “Xestobergsterol C, a new pentacyclic steroid from the Okinawan marine sponge Ircinia Sp. and absolute stereochemistry of xestobergsterol A” (J Nat Prod, 1995).)
